Reference: patent US10201556B2, “Combination for use in treating diseases or conditions associated with melanoma, or treating diseases or conditions associated with activated B-raf pathway” (InteRNA Technologies B.V., priority 2012, dated 2019)
Entries after “also recorded” stand apart in the source; their conditions may differ.

What was measured:
[1] = tested on: A375Hu melanoma cell line; test: Anti-proliferative effect of miRNA mimics, MTS assay; type: cell-based, human; conditions: 10 nM mimic, 72 hours after transfection
Protocol: (§1) The anti-proliferative effect of miRNA's in melanoma cell lines was determined with mature miRNA mimics from Ambion. For each cell line optimal growth and transfection conditions were determined prior to the experiment. Cells were plated in a 96-well plate at 3000 cells per well (100 uL) and were grown at 37 C, 5% CO2. Transfection mix (20 uL per well) was made for each miRNA mimic concentration with 0.3 uL (M249, M249-R4) or 0.5 uL (A375Hu, A375Hu-R1, A2058, RPMI-7951) X-TremeGene (Roche) per well (according to manufacturer's instructions) in Optimem (Invitrogen). Cells were transfected 24 hours after plating in triplicate. Medium was replaced 48 hours after transfection with fresh medium.

[2] = tested on: A375Hu-R1 melanoma cell line; test: as above; type: cell-based, human; conditions: 10 nM mimic, 72 hours after transfection
Protocol: as §1

CDK6 = test: Western immunoblotting of CDK6 protein levels; type: cell-based, human; conditions: A375Hu cells, 72 hrs post transfection, Western blot
Protocol: (§2) A375Hu cells were seeded in 6-well plates and transfected with different concentrations (10, 50 and 100 nM) of synthetic hsa-miR-129-5p or BRAF siRNA (100 nM) using RNAiMAX (7.5 μl/well). As control a scrambled miRNA and a non-targeting siRNA pool were included. Proteins were harvested 72 hrs post transfection using RIPA buffer supplemented with HALT™ Phosphatase Inhibitor (Thermo Scientific) and Protease Inhibitor Cocktail (Sigma). Fifteen μg protein was loaded on 7.5% TGX acrylamide gels (Bio-Rad) and subsequently transferred to PVDF membranes. The membranes were blocked in 5% milk in TBS-T and incubated O/N at 4° C. with primary antibodies to bRAF, phosphoERK1/2, CDK6, and tubulin (Santa Cruz). After incubation with secondary goat-anti-mouse antibodies (Santa Cruz), membranes were developed using ECL (Pierce).

[3] = tested on: RPMI-7951 melanoma cell line; test: Anti-proliferative effect of miRNA mimics, MTS assay; type: cell-based; conditions: 10 nM mimic, 72 hours after transfection
Protocol: as §1

A2058 melanoma cell line = test: as above; type: cell-based; conditions: 10 nM mimic, 72 hours after transfection
Protocol: as §1

[4] = tested on: M249-AR (M249-R4) melanoma cell line; test: as above; type: cell-based; conditions: 30 nM mimic, 72 hours after transfection
Protocol: as §1

M249 melanoma cell line = test: as above; type: cell-based; conditions: 5 nM mimic, 72 hours after transfection
Protocol: as §1

phospho-ERK1/2 = test: Western immunoblotting of phospho-ERK1/2 protein levels; type: cell-based, human; conditions: A375Hu cells, 72 hrs, Western blot
Protocol: as §2
as §2, with “(1, 10” for “(10, 50”, “hsa-miR-3157” for “hsa-miR-129-5p”, “bRAF, total ERK1/2,” for “bRAF,”, “CDK4, BCL2” for “CDK6,”
as §2, with “concentrations” for “concentrations (10, 50 and 100 nM)”, “vemurafenib (PLX-4032, 0.01, 0.1, 1 uM).” for “synthetic hsa-miR-129-5p or BRAF siRNA (100 nM) using RNAiMAX (7.5 μl/well). As control a scrambled miRNA and a non-targeting siRNA pool were included.”, “bRAF, total ERK1/2,” for “bRAF,”, “CDK4, BCL2” for “CDK6,”
A2058 cells were seeded in 6-well plates and transfected with different concentrations (1, 10 and 100 nM) of synthetic hsa-miR-3157-5p or BRAF siRNA using X-TremeGene (Roche, 15 μl/well). As control a scrambled miRNA was included. Proteins were harvested 72 hrs post transfection using RIPA buffer supplemented with HALT™ Phosphatase Inhibitor (Thermo Scientific) and Protease Inhibitor Cocktail (Sigma). Fifteen μg protein was loaded on 10% TGX acrylamide gels (Bio-Rad) and subsequently transferred to PVDF membranes. The membranes were blocked in 5% milk in TBS-T and incubated O/N at 4° C. with primary antibodies to bRAF, total ERK1/2, phosphoERK1/2, BCL2, CDK4 and tubulin (Santa Cruz). After incubation with secondary goat-anti-mouse antibodies (Santa Cruz), membranes were developed using ECL (Pierce).
Transfection was performed as described in Example 4 in 6-well format. Proteins were isolated using RIPA buffer (50 mM Tris pH 8.0, 150 mM NaCL, 1% NP-40, 0.5% Sodium deoxycholate, 0.1% SDS), supplemented with Protease Inhibitor Cocktail (Sigma) and Halt™ Phosphatase Inhibitor Cocktail (Pierce/Thermo Scientific). […]

| Substance | A375Hu % Viability 10 nM [1] [%] | A375Hu-R1 % Viability 10 nM [2] [%] | CDK6 protein levels (CDK6) | RPMI-7951 % Viability 10 nM [3] [%] | A2058 % Viability 10 nM (A2058 melanoma cell line) [%] | M249-AR % Viability 30 nM [4] [%] | M249 % Viability 5 nM (M249 melanoma cell line) [%] | phospho-ERK1/2 protein levels (phospho-ERK1/2) |
| --- | --- | --- | --- | --- | --- | --- | --- | --- |
| hsa-miR-129-5p: mature miRNA mimic, SEQ ID NO 4 CUUUUUGCGGUCUGGGCUUGC (listed as RNA, chemistry not given here) | 59 | 48 | significant reduction in CDK6 protein abundance; also recorded: down-regulates | 82 | 44 | 64 | 47 | does not result in pERK down-regulation |
| hsa-miR-7-5p: mature miRNA mimic, SEQ ID NO 1 UGGAAGACUAGUGAUUUUGUUGU (listed as RNA, chemistry not given here) | 58 | 68 |  | 65 | 51 | 67 | 48 |  |
| hsa-miR-182-3p: mature miRNA mimic, SEQ ID NO 10 UGGUUCUAGACUUGCCAACUA (listed as RNA, chemistry not given here) |  | 59 |  | 68 | 77 | 83 | 71 |  |
| hsa-miR-16-5p: mature miRNA mimic, SEQ ID NO 7 UAGCAGCACGUAAAUAUUGGCG (listed as RNA, chemistry not given here) | 62 | 57 |  | 68 | 39 | 68 | 27 |  |
| hsa-miR-518b: mature miRNA mimic, SEQ ID NO 5 CAAAGCGCUCCCCUUUAGAGGU (listed as RNA, chemistry not given here) | 66 |  |  | 53 | 44 | 53 | 50 |  |
| hsa-miR-497-5p: mature miRNA mimic, SEQ ID NO 8 CAGCAGCACACUGUGGUUUGU (listed as RNA, chemistry not given here) | 45 | 57 |  | 68 | 53 | 68 | 29 |  |
| hsa-miR-10b-3p: mature miRNA mimic, SEQ ID NO 2 ACAGAUUCGAUUCUAGGGGAAU (listed as RNA, chemistry not given here) | 71 | 59 |  | 51 | 42 | 86 | 82 |  |
| hsa-miR-200c-5p: mature miRNA mimic, SEQ ID NO 9 CGUCUUACCCAGCAGUGUUUGG (listed as RNA, chemistry not given here) | 43 | 66 |  | 58 | 37 | 58 | 44 |  |
| hsa-miR-96-5p: mature miRNA mimic, SEQ ID NO 3 UUUGGCACUAGCACAUUUUUGCU (listed as RNA, chemistry not given here) | 73 | 69 |  | 53 | 33 | 82 | 64 |  |
